Source: patent US11518742B2 (priority 2020, dated 2022)
Where two headings read alike, the source gives them in different places.

Tests used:
[1] = Summary of clinical observations in applicant-sponsored rat studies; details: Sprague Dawley, in vivo, other: intranasal instillation, HED 48 mg, read-out: NOAEL determined in the 14-day toxicology studies
Excerpt: Based on preliminary data from another ongoing study in dogs, it has been observed that the site of blood sampling in dogs may impact the measured plasma exposure. Samples from the jugular vein may result in higher apparent exposure levels than samples from the cephalic vein, which might be due to the local transmucosal route of administration (also reported in the scientific literature (Illum, 2003; Sohlberg, 2013)). Therefore, dose escalation criteria for the Phase 1 Single Ascending Dose study are based on assessment of clinical criteria, safety factors and exposure. A maximum dose of 14 mg has been designated.

Sprague Dawley rats = test: 14-day repeat-dose intranasal toxicity study with 14-day recovery in rats (Study 700041); type: in vivo, rat; details: for Thymus Mean Absolute Weight, percentage compared to the control value: males; for Clinical signs: male and female
Procedure: (§1) The animals were monitored for mortality, clinical signs, respiratory measurements, body weights, food consumption, and body temperature. Ophthalmoscopic examinations and respiratory function tests were performed on all animals at scheduled timepoints. Clinical pathology assessments (hematology, coagulation, clinical chemistry, and urinalysis) were evaluated at termination. […] Following dosing, the Main animals were euthanized and subjected to a complete necropsy examination on Day 15. […] TK animals were euthanized after the last blood collection and discarded without further examination. At terminal euthanasia, selected tissues/organs were weighed, and microscopic evaluations of a standard set of tissues including the nasal turbinates (4 sections) and brain (7 sections) were performed for all Main and Recovery study animals.
(§2) Following dosing, animals in the Main group were euthanized and subjected to a necropsy examination on Day 15. […] For toxicokinetics, a series of 8 blood samples (approximately 0.5 mL each) were collected from all rats in the Toxicokinetic group (3 rats/sex/timepoint) on Days 1 and 14 of the treatment period at 2, 5, 10, 15 and 30 minutes, and 1.0, 3.0 and 8 hours after treatment. For control rats (3 rats/sex) in the Toxicokinetic group only 1 sample was collected at the 15 minutes post dosing timepoint on Days 1 and 14.
(§3) Toxicity was based on the following parameters monitored: mortality/morbidity, clinical observations, body weights/gains, food consumption, ophthalmoscopy, clinical pathology (hematology, coagulation, chemistry, and urinalysis), necropsy observations, selected organ weights, and microscopic examination of a complete set of standard tissues including 4 cross levels of the nasal cavity and 7 sections of the brain.

[2] = as above; type: in vivo, rat; details: both sexes, Sprague Dawley, in vivo, inhaled or intranasal; 14-day intranasal, rat
Procedure: as §1, §2, §3

[3] = Toxicokinetics, 14-day intranasal study in dogs (Study 62959); type: in vivo; details: dog, plasma, inhaled or intranasal; for AUC(0-inf): read-out: AUCINF_obs; for half-life: read-out: t1/2 (converted); for AUC(0-t): read-out: AUC0-Tlast
Procedure: Assessments of mortality, clinical signs, olfactory reflex, body weights, food consumption, ophthalmology, and electrocardiograms were performed. In addition, clinical pathology assessments (hematology, coagulation, clinical chemistry and urinalysis) were evaluated once pretreatment and at termination. Blood samples were collected from the jugular vein of all animals on Days 1 and 14, at up to 8 time points relative to treatment, for analysis of test item concentration in plasma and the subsequent calculation of toxicokinetic parameters. Following dosing, the Main animals were euthanized and subjected to a complete necropsy examination on Day 15. […] All Main and Recovery study animals underwent complete necropsy examinations, selected tissues/organs were retained, and microscopic evaluations of a standard set of tissues were performed.
For toxicokinetics, a series of 8 blood samples were collected from the jugular vein from all treated animals on each of Days 1 and 14 of the treatment period at 2, 5, 10, 15, 30, and 60 minutes as well as 3 and 8 hours after treatment.

male Sprague-Dawley rats = test: Functional Observational Battery (FOB), single intranasal administration (ITR study 15951); type: in vivo, rat
Procedure: The test and control/vehicle items were administered by single dose intranasal administration to both nostrils, as shown in Table 7.
Parameters monitored included mortality and clinical signs. General behavioral changes were assessed using FOB at 6 timepoints: before dosing, and at 15 minutes, 1, 2, 4, and 24 hours postdosing. On each occasion, the FOB was performed at 4 stages: when the animals were in their home cage, while handling the animals, when the animals were freely moving in an open-field, and when they received diverse stimuli for reactivity evaluation. The body temperature and neuromuscular strength were also measured on each of the occasions detailed above.

[4] = female, Beagle, 0.8 mg/kg/day, Day 1, Female
[5] = female, Beagle, 0.8 mg/kg/day, Day 14, Female
[6] = female, beagle, 0.4 mg/kg/day, Day 1, Female
[7] = female, beagle, 0.4 mg/kg/day, Day 14, Female
[8] = female, beagle, […], 2.5 & […], Day 1, Female
[9] = male, Beagle, 0.8 mg/kg/day, Day 1, Male
[10] = male, Beagle, 0.8 mg/kg/day, Day 14, Male
[11] = male, beagle, 0.4 mg/kg/day, Day 1, Male
[12] = male, beagle, 0.4 mg/kg/day, Day 14, Male
[13] = male, beagle, […], 2.5 & […], Day 14, Male

SMILES: COc1ccc2[nH]cc(CCN(C)C)c2c1 [BPL-5MEO, 5-methoxy-N,N-dimethyltryptamine]
- NOAEL at 14 days [1]: 5 mg/kg
- Effect on reproductive tissues (Sprague Dawley rats; 14-day pivotal GLP intranasal toxicity study, rats): no evidence of an adverse effect on reproductive tissues
- Respiratory rates (Sprague Dawley rats; 20 minutes post dose): Decreases in respiratory rates
- Thymus Mean Absolute Weight, percentage compared to the control value (Sprague Dawley rats; Group 2 (5 mg/kg/day)): −4%
- Clinical signs (Sprague Dawley rats; Group 2 (Low Dose) 5 mg/kg/day): incoordination, shaking, salivation, decreased activity, lying on cage floor and sensitive to touch
- Thymus Mean Absolute Weight, percentage compared to the control value (Sprague Dawley rats; Group 3 (20 mg/kg/day)): 18%
- Clinical signs (Sprague Dawley rats; Group 3 (Mid Dose) 20 mg/kg/day): incoordination, shaking (or tremor), increased or shallow respiration, mydriasis, salivation, decreased activity, partially closed eyes, lying on cage floor and sensitive to touch
- Thymus Mean Absolute Weight, percentage compared to the control value (Sprague Dawley rats; Group 4 (75 mg/kg/day)): −31%
- Clinical signs (Sprague Dawley rats; Group 4 (High Dose) 75 mg/kg/day): incoordination, shaking (or tremor), increased or shallow respiration, mydriasis, salivation, decreased activity, partially closed eyes, lying on cage floor and sensitive to touch
- Microscopic findings, epithelium of nasal cavities 1-4 (Sprague Dawley rats; Main animals, proportional to dose, greater in males): minimal to mild changes
- Reversibility of nasal microscopic findings (Sprague Dawley rats; after 14-day recovery period): incomplete but progressive ongoing reversal of epithelial degeneration
- Body temperature (Sprague Dawley rats; both sexes): Slight dose dependent body temperature increases
- Body weight gain (Sprague Dawley rats; both sexes, Days 1 to 14): Slight dose-dependent body weight gain suppression
- Ocular effect (Sprague Dawley rats; dose levels 75 mg/kg/day for 14 days): no adverse ocular effect
- Activated partial thromboplastin time (APTT) (Sprague Dawley rats; mid (20 mg/kg/day) and high (75 mg/kg/day) dose groups, both sexes): APTT were increased
- Hematology (Sprague Dawley rats; mid and high dose groups, both sexes): Platelet, neutrophil, monocyte and basophil counts were slightly increased
- Overall tolerability (Sprague Dawley rats; ≤75 mg/kg/day for 14 consecutive days): tolerated with no BPL-5MEO-related effects on mortality, ophthalmology, clinical chemistry, macroscopic findings and urinalysis
- NOAEL at 14 days [2]: 5 mg/kg
- AUC ([3]; Beagle, dogs, 1.5 mg/kg/day, combined for both sexes, read-out: AUCINT_obs at the NOAEL): 220 ng·h/mL
- Cmax [3, 4]: 328 ng/mL
- AUC(0-inf) [3, 4]: 265 ng·h/mL
- half-life [3, 4]: 43.8 min
- Cmax [3, 5]: 244 ng/mL
- AUC(0-t) [3, 5]: 248 ng·h/mL
- half-life [3, 5]: 95.4 min
- Cmax [3, 6]: 242 ng/mL
- AUC(0-t) [3, 6]: 104 ng·h/mL
- AUC(0-inf) [3, 6]: 106 ng·h/mL
- half-life [3, 6]: 18.7 min
- Cmax [3, 7]: 196 ng/mL
- AUC(0-t) [3, 7]: 86.4 ng·h/mL
- AUC(0-inf) [3, 7]: 95.9 ng·h/mL
- half-life [3, 7]: 42.4 min
- Tmax [3, 8]: 6.66 min
- half-life [3, 8]: 50.9 min
- Cmax [3, 9]: 300 ng/mL
- Tmax [3, 9]: 6.66 min
- AUC(0-t) [3, 9]: 152 ng·h/mL
- AUC(0-inf) [3, 9]: 160 ng·h/mL
- half-life [3, 9]: 35.7 min
- Cmax [3, 10]: 411 ng/mL
- Tmax [3, 10]: 6.66 min
- AUC(0-t) [3, 10]: 298 ng·h/mL
- AUC(0-inf) [3, 10]: 322 ng·h/mL
- half-life [3, 10]: 79.2 min
- Cmax [3, 11]: 343 ng/mL
- AUC(0-t) [3, 11]: 77.9 ng·h/mL
- AUC(0-inf) [3, 11]: 80.9 ng·h/mL
- half-life [3, 11]: 34.3 min
- Cmax [3, 12]: 285 ng/mL
- Tmax [3, 12]: 6.66 min
- AUC(0-t) [3, 12]: 70.6 ng·h/mL
- AUC(0-inf) [3, 12]: 77.7 ng·h/mL
- half-life [3, 12]: 25.7 min
- Tmax [3, 13]: 13.4 min
- half-life [3, 13]: 49 min
- Clinical sign in one animal (male Sprague-Dawley rats; 10 mg/kg): twitching
- Resolution of clinical signs and FOB changes (male Sprague-Dawley rats; 1.5, 3, and 10 mg/kg): fully resolved within 1 or 2 hours following dosing
- Clinical signs in some animals (male Sprague-Dawley rats; 3 and 10 mg/kg doses): Tremors, salivation, and gasping
- FOB behavioral domain (male Sprague-Dawley rats; 15 minutes postdose, comparable to control at 1-hour postdose): transient decreased activity, lying on the cage floor, and decreased rearing
- Clinical signs immediately following dosing (male Sprague-Dawley rats; all dose groups, transient): decreased activity, lying on the cage floor, shallow/increased respiration and dilated pupils
- FOB neurological (sensorimotor)/neuromuscular domain (male Sprague-Dawley rats; all dose levels, comparable to control at 1-hour postdose): transient changes in gait (difficulty in movement)
- FOB autonomic domain (male Sprague-Dawley rats; all dose levels, comparable with control at 2 hours postdose): salivation, piloerection, increased respiration, dilated pupils and changes in body temperature
